Test results: ChEMBL document CHEMBL1201862, “PubChem BioAssay data set” (2004)
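All cell lines were grown in 96-well plates and treated with compound for 48 hours. GI50 is the concentration that inhibits growth by half.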 Active and inactive are the calls of the source. Rule as the data show it: active = GI50 up to about 1.1 µM and inactive = higher.

What was measured:
Assay in all cases: growth of human tumour cells (NCI), 48 h
LOX IMVI = tested on: LOX IMVI
RPMI-8226 = tested on: RPMI-8226
HOP-92 = tested on: HOP-92
SK-OV-3 = tested on: SK-OV-3
OVCAR-5 = tested on: OVCAR-5
OVCAR-4 = tested on: OVCAR-4
SK-MEL-28 = tested on: SK-MEL-28
SN12C = tested on: SN12C
MCF7 = tested on: MCF7
OVCAR-8 = tested on: OVCAR-8
COLO 205 = tested on: COLO 205
SW-620 = tested on: SW-620
HL-60 = tested on: HL-60
SNB-75 = tested on: SNB-75
K562 = tested on: K562
UO-31 = tested on: UO-31
786-0 = tested on: 786-0
ACHN = tested on: ACHN
NCI-H522 = tested on: NCI-H522
M14 = tested on: M14

## COCOc1ccc(OC)cc1
LOX IMVI
  GI50: > 100 µM (inactive)
RPMI-8226
  GI50: > 100 µM (inactive)
HOP-92
  GI50: > 100 µM (inactive)
SK-OV-3
  GI50: > 100 µM (inactive)
OVCAR-5
  GI50: > 100 µM (inactive)
OVCAR-4
  GI50: > 100 µM (inactive)
SK-MEL-28
  GI50: > 100 µM (inactive)
SN12C
  GI50: > 100 µM (inactive)
MCF7
  GI50: > 100 µM (inactive)
OVCAR-8
  GI50: > 100 µM (inactive)
COLO 205
  GI50: > 100 µM (inactive)
SW-620
  GI50: > 100 µM (inactive)
HL-60
  GI50: > 100 µM (inactive)
SNB-75
  GI50: > 100 µM (inactive)
K562
  GI50: > 100 µM (inactive)
UO-31
  GI50: > 100 µM (inactive)

## CC(C)(C)OC(=O)N1CCC(NC(=O)NC2CCN(C(=O)OC(C)(C)C)CC2)CC1
LOX IMVI
  GI50: > 100 µM (inactive)
RPMI-8226
  GI50: > 100 µM (inactive)
HOP-92
  GI50: > 100 µM (inactive)
786-0
  GI50: > 100 µM (inactive)
OVCAR-5
  GI50: > 100 µM (inactive)
OVCAR-4
  GI50: > 100 µM (inactive)
ACHN
  GI50: > 100 µM (inactive)
NCI-H522
  GI50: > 100 µM (inactive)
SK-MEL-28
  GI50: > 100 µM (inactive)
SN12C
  GI50: > 100 µM (inactive)
MCF7
  GI50: > 100 µM (inactive)
OVCAR-8
  GI50: > 100 µM (inactive)
SW-620
  GI50: > 100 µM (inactive)
HL-60
  GI50: > 100 µM (inactive)
SNB-75
  GI50: > 100 µM (inactive)
UO-31
  GI50: > 100 µM (inactive)
M14
  GI50: > 100 µM (inactive)

## C/C(=N/O)c1cccc(Nc2nc3ccccc3c3[nH]c4ccccc4c23)c1
LOX IMVI
  GI50: 2.22 µM (inactive)
RPMI-8226
  GI50: 2.26 µM (inactive)
HOP-92
  GI50: 2.51 µM (inactive)
SK-OV-3
  GI50: 5.98 µM (inactive)
786-0
  GI50: 2.3 µM (inactive)
OVCAR-5
  GI50: 2.65 µM (inactive)
OVCAR-4
  GI50: 2.33 µM (inactive)
ACHN
  GI50: 1.59 µM (inactive)
NCI-H522
  GI50: 1.5 µM (inactive)
SK-MEL-28
  GI50: 3.6 µM (inactive)
SN12C
  GI50: 3.4 µM (inactive)
MCF7
  GI50: 1.48 µM (inactive)
OVCAR-8
  GI50: 2.65 µM (inactive)
COLO 205
  GI50: 2.24 µM (inactive)
SW-620
  GI50: 1.63 µM (inactive)
HL-60
  GI50: 3.08 µM (inactive)
K562
  GI50: 3.44 µM (inactive)
UO-31
  GI50: 2.88 µM (inactive)
M14
  GI50: 2.6 µM (inactive)

## O=[N+]([O-])c1cc(C(F)(F)F)cc2c1SC1=Nc3ccccc3CN12
LOX IMVI
  GI50: > 100 µM (inactive)
RPMI-8226
  GI50: > 100 µM (inactive)
HOP-92
  GI50: > 100 µM (inactive)
SK-OV-3
  GI50: > 100 µM (inactive)
OVCAR-5
  GI50: > 100 µM (inactive)
OVCAR-4
  GI50: > 100 µM (inactive)
NCI-H522
  GI50: > 100 µM (inactive)
SK-MEL-28
  GI50: > 100 µM (inactive)
SN12C
  GI50: > 100 µM (inactive)
MCF7
  GI50: > 100 µM (inactive)
OVCAR-8
  GI50: > 100 µM (inactive)
COLO 205
  GI50: > 100 µM (inactive)
SW-620
  GI50: > 100 µM (inactive)
HL-60
  GI50: > 100 µM (inactive)
SNB-75
  GI50: > 100 µM (inactive)
K562
  GI50: > 100 µM (inactive)
UO-31
  GI50: > 100 µM (inactive)

## N#Cc1c2c(c(Nc3ccc(F)cc3)n3c1nc1ccccc13)CCCC2
RPMI-8226
  GI50: 10.5 µM (inactive)
HOP-92
  GI50: 26.9 µM (inactive)
SK-OV-3
  GI50: 97.9 µM (inactive)
786-0
  GI50: 56.2 µM (inactive)
OVCAR-5
  GI50: > 100 µM (inactive)
OVCAR-4
  GI50: > 87.3 µM (inactive)
ACHN
  GI50: 1.8 µM (inactive)
NCI-H522
  GI50: > 62.1 µM (inactive)
SK-MEL-28
  GI50: > 100 µM (inactive)
SN12C
  GI50: > 100 µM (inactive)
MCF7
  GI50: > 32.5 µM (inactive)
OVCAR-8
  GI50: > 67.3 µM (inactive)
COLO 205
  GI50: > 22.1 µM (inactive)
SW-620
  GI50: > 54 µM (inactive)
HL-60
  GI50: 9.93 µM (inactive)
SNB-75
  GI50: 45.7 µM (inactive)
K562
  GI50: 0.562 µM (active)
UO-31
  GI50: > 38.9 µM (inactive)
M14
  GI50: 1.7 µM (inactive)

## CC(C)n1c(=O)n(-c2ccccc2)n(C(C)(C)C)c1=O
LOX IMVI
  GI50: > 100 µM (inactive)
HOP-92
  GI50: > 100 µM (inactive)
SK-OV-3
  GI50: > 100 µM (inactive)
786-0
  GI50: > 100 µM (inactive)
OVCAR-5
  GI50: > 100 µM (inactive)
OVCAR-4
  GI50: > 100 µM (inactive)
ACHN
  GI50: > 100 µM (inactive)
SK-MEL-28
  GI50: > 100 µM (inactive)
SN12C
  GI50: > 100 µM (inactive)
MCF7
  GI50: > 100 µM (inactive)
OVCAR-8
  GI50: > 100 µM (inactive)
COLO 205
  GI50: > 100 µM (inactive)
SW-620
  GI50: > 100 µM (inactive)
HL-60
  GI50: 47.4 µM (inactive)
SNB-75
  GI50: > 100 µM (inactive)
K562
  GI50: > 100 µM (inactive)
UO-31
  GI50: > 100 µM (inactive)
M14
  GI50: > 100 µM (inactive)

## Cc1ccc(/C=C/C(=O)c2cc(CN(C)C)c(O)c(CN(C)C)c2)cc1
LOX IMVI
  GI50: 6.65 µM (inactive)
RPMI-8226
  GI50: 13.2 µM (inactive)
HOP-92
  GI50: 31.9 µM (inactive)
786-0
  GI50: 27.2 µM (inactive)
OVCAR-5
  GI50: 66.8 µM (inactive)
ACHN
  GI50: 12.1 µM (inactive)
NCI-H522
  GI50: 14.8 µM (inactive)
SK-MEL-28
  GI50: 17.6 µM (inactive)
SN12C
  GI50: 14.2 µM (inactive)
MCF7
  GI50: 17.3 µM (inactive)
OVCAR-8
  GI50: 21.3 µM (inactive)
COLO 205
  GI50: 10.6 µM (inactive)
SW-620
  GI50: 16.1 µM (inactive)
HL-60
  GI50: 11.7 µM (inactive)
SNB-75
  GI50: 24.4 µM (inactive)
K562
  GI50: 13.8 µM (inactive)
UO-31
  GI50: 15.7 µM (inactive)
M14
  GI50: 15.8 µM (inactive)

## N/C(=N\O)N/N=C/c1ccc2c(c1)OCCO2
LOX IMVI
  GI50: 8.09 µM (inactive)
RPMI-8226
  GI50: 16.8 µM (inactive)
HOP-92
  GI50: 27 µM (inactive)
SK-OV-3
  GI50: 34 µM (inactive)
OVCAR-5
  GI50: 4.72 µM (inactive)
OVCAR-4
  GI50: 8.91 µM (inactive)
NCI-H522
  GI50: 6.65 µM (inactive)
SK-MEL-28
  GI50: 21.4 µM (inactive)
SN12C
  GI50: 29.6 µM (inactive)
MCF7
  GI50: 22.1 µM (inactive)
OVCAR-8
  GI50: 8.49 µM (inactive)
COLO 205
  GI50: 7.28 µM (inactive)
SW-620
  GI50: 28.2 µM (inactive)
HL-60
  GI50: 18.2 µM (inactive)
SNB-75
  GI50: 29.9 µM (inactive)
K562
  GI50: 7.85 µM (inactive)
UO-31
  GI50: 8.65 µM (inactive)
